Legend:
Experiment in all cases: relative viability (nuclei count vs DMSO), 5 days (fraction); higher = more cells survive
LU99A = tested on: LU99A
In short: (§1)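 One day after seeding in 1536-well plates, lung cancer cell lines were dosed by pin tool. Dosing was either single-drug or a fixed anchor-drug dose plus five library-drug doses (not always all listed) in √10 steps. After 5 days, nuclei were stained in one fix-and-stain step and counted on 4× images, and relative viability is the nuclei count of treated wells over that of vehicle wells, given as the median of duplicate plates.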

NCI-H1651 = tested on: NCI-H1651
In short: as §1

SK-MES-1 = tested on: SK-MES-1
In short: as §1

PC-3 [JPC-3] = tested on: PC-3 [JPC-3]
In short: as §1

LK-2 = tested on: LK-2
In short: as §1

NCI-H1355 = tested on: NCI-H1355
In short: as §1

NCI-H2087 = tested on: NCI-H2087
In short: as §1

LCLC-97TM1 = tested on: LCLC-97TM1
In short: as §1

NCI-H661 = tested on: NCI-H661
In short: as §1

BEN = tested on: BEN
In short: as §1

NCI-H358 = tested on: NCI-H358
In short: as §1

NCI-H1666 = tested on: NCI-H1666
In short: as §1

NCI-H838 = tested on: NCI-H838
In short: as §1

NCI-H1944 = tested on: NCI-H1944
In short: as §1

HCC-78 = tested on: HCC-78
In short: as §1

NCI-H1975 = tested on: NCI-H1975
In short: as §1

LC-2-ad = tested on: LC-2-ad
In short: as §1

LXF-289 = tested on: LXF-289
In short: as §1

NCI-H596 = tested on: NCI-H596
In short: as §1

NCI-H650 = tested on: NCI-H650
In short: as §1

## CCN(CC)CCCCNc1ncc2cc(-c3cc(OC)cc(OC)c3)c(NC(=O)NC(C)(C)C)nc2n1 + Cc1nc(NC(=O)N2CCC[C@H]2C(N)=O)sc1-c1ccnc(C(C)(C)C(F)(F)F)c1 [Alpelisib] (partner 2 µM)
LU99A; first compound 0.01 µM
  relative viability: 0.5
LU99A; first compound 0.03162 µM
  relative viability: 0.523
LU99A; first compound 0.1 µM
  relative viability: 0.55
LU99A; first compound 0.3162 µM
  relative viability: 0.666
LU99A; first compound 1 µM
  relative viability: 0.575
NCI-H1651; first compound 0.01 µM
  relative viability: 0.938
NCI-H1651; first compound 0.03162 µM
  relative viability: 1
NCI-H1651; first compound 0.1 µM
  relative viability: 1.1
NCI-H1651; first compound 0.3162 µM
  relative viability: 1.13
NCI-H1651; first compound 1 µM
  relative viability: 0.844
SK-MES-1; first compound 0.01 µM
  relative viability: 1.12
SK-MES-1; first compound 0.03162 µM
  relative viability: 0.934
SK-MES-1; first compound 0.1 µM
  relative viability: 0.877
SK-MES-1; first compound 0.3162 µM
  relative viability: 1.03
SK-MES-1; first compound 1 µM
  relative viability: 0.849
PC-3 [JPC-3]; first compound 0.01 µM
  relative viability: 1.03
PC-3 [JPC-3]; first compound 0.03162 µM
  relative viability: 1.02
PC-3 [JPC-3]; first compound 0.1 µM
  relative viability: 0.99
PC-3 [JPC-3]; first compound 0.3162 µM
  relative viability: 1.05
PC-3 [JPC-3]; first compound 1 µM
  relative viability: 1.07
LK-2; first compound 0.01 µM
  relative viability: 0.679
LK-2; first compound 0.03162 µM
  relative viability: 0.891
LK-2; first compound 0.1 µM
  relative viability: 0.848
LK-2; first compound 0.3162 µM
  relative viability: 0.6
LK-2; first compound 1 µM
  relative viability: 0.301
NCI-H1355; first compound 0.01 µM
  relative viability: 0.776
NCI-H1355; first compound 0.03162 µM
  relative viability: 0.847
NCI-H1355; first compound 0.1 µM
  relative viability: 0.894
NCI-H1355; first compound 0.3162 µM
  relative viability: 0.839
NCI-H1355; first compound 1 µM
  relative viability: 0.785
NCI-H2087; first compound 0.01 µM
  relative viability: 1.12
NCI-H2087; first compound 0.03162 µM
  relative viability: 1.03
NCI-H2087; first compound 0.1 µM
  relative viability: 1.53
NCI-H2087; first compound 0.3162 µM
  relative viability: 1.23
NCI-H2087; first compound 1 µM
  relative viability: 1.15
LCLC-97TM1; first compound 0.03162 µM
  relative viability: 0.265
LCLC-97TM1; first compound 0.1 µM
  relative viability: 0.221
LCLC-97TM1; first compound 0.3162 µM
  relative viability: 0.216
LCLC-97TM1; first compound 1 µM
  relative viability: 0.244
NCI-H661; first compound 0.01 µM
  relative viability: 0.537
NCI-H661; first compound 0.03162 µM
  relative viability: 0.382
NCI-H661; first compound 0.1 µM
  relative viability: 0.657
NCI-H661; first compound 0.3162 µM
  relative viability: 0.858
NCI-H661; first compound 1 µM
  relative viability: 0.535
BEN; first compound 0.01 µM
  relative viability: 1.17
BEN; first compound 0.03162 µM
  relative viability: 0.891
BEN; first compound 0.1 µM
  relative viability: 0.882
BEN; first compound 0.3162 µM
  relative viability: 1.12
BEN; first compound 1 µM
  relative viability: 0.801
NCI-H358; first compound 0.01 µM
  relative viability: 1.06
NCI-H358; first compound 0.03162 µM
  relative viability: 0.901
NCI-H358; first compound 0.1 µM
  relative viability: 1.01
NCI-H358; first compound 0.3162 µM
  relative viability: 0.848
NCI-H358; first compound 1 µM
  relative viability: 0.725
NCI-H1666; first compound 0.01 µM
  relative viability: 0.963
NCI-H1666; first compound 0.03162 µM
  relative viability: 0.889
NCI-H1666; first compound 0.1 µM
  relative viability: 1.02
NCI-H1666; first compound 0.3162 µM
  relative viability: 0.995
NCI-H1666; first compound 1 µM
  relative viability: 0.74
NCI-H838; first compound 0.01 µM
  relative viability: 1.11
NCI-H838; first compound 0.03162 µM
  relative viability: 0.964
NCI-H838; first compound 0.1 µM
  relative viability: 0.996
NCI-H838; first compound 0.3162 µM
  relative viability: 1.04
NCI-H838; first compound 1 µM
  relative viability: 0.602
NCI-H1944; first compound 0.01 µM
  relative viability: 0.884
NCI-H1944; first compound 0.03162 µM
  relative viability: 0.842
NCI-H1944; first compound 0.1 µM
  relative viability: 0.89
NCI-H1944; first compound 0.3162 µM
  relative viability: 0.95
NCI-H1944; first compound 1 µM
  relative viability: 0.799
HCC-78; first compound 0.03162 µM
  relative viability: 0.255
HCC-78; first compound 0.1 µM
  relative viability: 0.308
HCC-78; first compound 0.3162 µM
  relative viability: 0.348
HCC-78; first compound 1 µM
  relative viability: 0.303
NCI-H1975; first compound 0.01 µM
  relative viability: 0.699
NCI-H1975; first compound 0.03162 µM
  relative viability: 0.691
NCI-H1975; first compound 0.1 µM
  relative viability: 0.707
NCI-H1975; first compound 0.3162 µM
  relative viability: 0.787
NCI-H1975; first compound 1 µM
  relative viability: 0.451
LC-2-ad; first compound 0.01 µM
  relative viability: 1.03
LC-2-ad; first compound 0.03162 µM
  relative viability: 0.918
LC-2-ad; first compound 0.1 µM
  relative viability: 0.942
LC-2-ad; first compound 0.3162 µM
  relative viability: 1.07
LC-2-ad; first compound 1 µM
  relative viability: 0.865
LXF-289; first compound 0.01 µM
  relative viability: 1.07
LXF-289; first compound 0.03162 µM
  relative viability: 1.06
LXF-289; first compound 0.1 µM
  relative viability: 1.19
LXF-289; first compound 0.3162 µM
  relative viability: 1.02
LXF-289; first compound 1 µM
  relative viability: 0.971
NCI-H596; first compound 0.01 µM
  relative viability: 0.528
NCI-H596; first compound 0.03162 µM
  relative viability: 0.48
NCI-H596; first compound 0.1 µM
  relative viability: 0.478
NCI-H596; first compound 0.3162 µM
  relative viability: 0.549
NCI-H596; first compound 1 µM
  relative viability: 0.368
NCI-H650; first compound 0.01 µM
  relative viability: 1.04
NCI-H650; first compound 0.03162 µM
  relative viability: 1.04
NCI-H650; first compound 0.1 µM
  relative viability: 1.21
NCI-H650; first compound 0.3162 µM
  relative viability: 1.09
NCI-H650; first compound 1 µM
  relative viability: 0.865
